Experimental data published in article PMC9794833, “Ligand recognition and activation of neuromedin U receptor 2” (Nature Communications, 2022).
Values joined by “and” are separate entries in the source; they are usually repeats but may differ in a detail not shown here. Equal values may be shown once. Read-outs that look alike come from different tables or passages of the source. Where no end group is shown, it is not given here.

Legend:
Type in all cases: cell-based
[1] = biological target: T1, NMU2 engineered construct (Homo sapiens, UniProt Q9GZQ4); assay: TRUPATH assay, engineered NMU2 construct used for cryo-EM
T1 construct: HA signal peptide (N); Flag (N); PreScission protease site (C); twin-strep (C); expressed in transfected cells
Text: To facilitate expression and purification of the NmU-25–NMU2–Gi1 complex, a hemagglutinin (HA) signal peptide followed by a flag tag was introduced at the N terminus of NMU2, while the flexible C-terminal residues of the receptor (Q356-T415) were replaced by a PreScission protease site followed by a twin-strep affinity tag (Supplementary Fig. 1a, b). […] Dominant-negative Gαi1 (DNGαi1) containing five mutations (S47C, G202T, G203A, E245A, and A326S) was used to improve the stability of the complex as these mutations lead to a preference for a nucleotide-free state, and prevent the dissociation of Gβγ from the heterotrimer[20],[21]. Over 8700 movies were collected, and the structure of the NmU-25–NMU2–Gi1 complex was determined by cryo-EM single-particle analysis at a global nominal resolution of 3.3 Å (Supplementary Fig. 2a–f, Supplementary Table 1). […]
The plasmids of Gαi1, Gβ3, and Gγ9 used for the TRUPATH assay were purchased from Addgene (TRUPATH Kit, #1000000163). […] The expression level of the receptor was measured by incubating 10 μl cells with 15 μl TBS buffer supplemented with 4% bovine serum albumin, 20% (v/v) viability staining solution7-AAD (Invitrogen, Cat#00-6993-50), and ANTI-FLAG M2-FITC antibody (Sigma, F4049; 1:100 diluted by TBS) at 4 °C for 20 min. […] Data were processed and analyzed following the method in the literature by using GraphPad Prism 8.0.

[2] = biological target: T2, NMU2 H43E (Homo sapiens, UniProt Q9GZQ4, H43E); assay: TRUPATH assay, NMU2 mutant H43E; details: H43E
T2 construct: HA signal peptide (N); expressed in transfected cells; host or cells: HEK 293F
Experimental: (§1) The plasmids of Gαi1, Gβ3, and Gγ9 used for the TRUPATH assay were purchased from Addgene (TRUPATH Kit, #1000000163). NMU2 constructs of WT and mutants were constructed into a PTT5 vector (Invitrogen) with an N-terminal HA signal peptide followed by a Flag tag. HEK 293F cells were transiently transfected with WT or mutants of NMU2, Gαi1, Gβ3, and Gγ9 at an […] ratio of 4:1:1:1 with a total of 3500 ng plasmid DNA using a transfection reagent (PEI MAX 2000, Polysciences) and cultivated at 37 °C with 5 % CO2. Cells were collected after 48-h transfection. The expression level of the receptor was measured by incubating 10 μl cells with 15 μl TBS buffer supplemented with 4% bovine serum albumin, 20% (v/v) viability staining solution7-AAD (Invitrogen, Cat#00-6993-50), and ANTI-FLAG M2-FITC antibody (Sigma, F4049; 1:100 diluted by TBS) at 4 °C for 20 min. After incubation, 175 μl TBS buffer was added, and the fluorescence signal on the cell surface was detected by an FCM (flow cytometry) reader (Millipore). The cells were diluted with 1× HBSS (Hank’s balanced salt solution) balanced buffer supplemented with 25 mM HEPES, pH 7.4, and seeded onto the 96-well opaque cell culture plates (Beyotime) at a density of 18,000 cells per well by 60 μl. Freshly prepared 50 μM coelenterazine 400a (Nanolight Technologies) was added into the well by 10 μl. After a 5 min equilibration time in the darkness, plates were then read in a Synerg^TM H1 microplate reader (BioTek) with excitation at 395 nm and emission at 410 and 515 nm by serially three times. Then, 30 μl of 3.3× agonists were added into the wells with a gradient final concentration from 10^−4–10^−13 M. Plates were read immediately again by serially five times. Data were processed and analyzed following the method in the literature by using GraphPad Prism 8.0.

[3] = biological target: T3, NMU2 E102A (Homo sapiens, UniProt Q9GZQ4, E102A); assay: TRUPATH assay, NMU2 mutant E102A
T3 construct: HA signal peptide (N); expressed in transfected cells; host or cells: HEK 293F
Experimental: as §1, with “The cells were diluted with 1× HBSS (Hank’s balanced salt solution) balanced buffer supplemented with 25 mM HEPES, pH 7.4, and seeded onto the 96-well opaque cell culture plates (Beyotime) at a density of 18,000 cells per well by 60 μl. Freshly prepared 50 μM coelenterazine 400a (Nanolight Technologies) was added into the well by 10 μl.” left out, “Data were processed and analyzed following the method in the literature by using GraphPad Prism 8.0.” left out

[4] = biological target: T4, NMU2 E105A (Homo sapiens, UniProt Q9GZQ4, E105A); assay: TRUPATH assay, NMU2 mutant E105A
T4 construct: HA signal peptide (N); expressed in transfected cells; host or cells: HEK 293F
Experimental: as §1

[5] = biological target: T5, NMU2 N109A (Homo sapiens, UniProt Q9GZQ4, N109A); assay: TRUPATH assay, NMU2 mutant N109A
T5 construct: HA signal peptide (N); expressed in transfected cells; host or cells: HEK 293F
Experimental: as §1

[6] = biological target: T6, NMU2 F305A (Homo sapiens, UniProt Q9GZQ4, F305A); assay: TRUPATH assay, NMU2 mutant F305A
T6 construct: HA signal peptide (N); expressed in transfected cells; host or cells: HEK 293F
Experimental: as §1

[7] = biological target: T7, NMU2 (Homo sapiens, UniProt Q9GZQ4); assay: IP accumulation assay (IP-One Gq kit), WT NMU2; details: IP accumulation
T7 construct: HA signal peptide (N); expressed in transfected cells; host or cells: HEK 293F
Experimental: (§2) NMU2 constructs of WT and mutants were constructed into PTT5 vector (Invitrogen), as mentioned above. HEK 293F cells were transiently transfected with WT or mutants with total of 2000 ng plasmid DNA using transfection reagent (PEI MAX 2000, Polysciences) and cultivated at 37 °C with 5% CO2. Cells were collected after 48-h transfection. IP accumulation was tested by IP-One Gq assay kit (Cisbio Bioassays, 62IPAPEJ) following the instruction manual. In general, cells were resuspended with 1× HBSS buffer containing 20 mM LiCl (stimulation buffer) and seeded into the white 384-well microplates (Proxi Plate^TM-384 Plus, PerkinElmer) with a density of 20,000 per well. Cells were preincubated with 10^−5 M R-PSOP (provided by Boehringer Ingelheim company, Germany) and gradient concentration from 10^−4 to 10^−11 M of NMU-25 or gradient concentration 10^−4 to 10^−11 M of NMU-25 alone in stimulation buffer at 37 °C for 90 min. The cryptate-labeled anti-IP1 monoclonal antibody and d2-labeled IP1 were diluted with lysis & detection buffer (1:20) and added to each well by 3 μl, respectively. The plates were incubated at room temperature for 60 minutes and then read in a Synerg^TM H1 microplate reader (BioTek) with excitation at 330 nm and emission at 620 and 665 nm. The IP1 production was calculated by a standard dose–response curve and analyzed by GraphPad Prism 8.0.

[8] = biological target: T3, NMU2 E102A; assay: IP accumulation assay, NMU2 mutant E102A; details: IP accumulation
Experimental: as §2

[9] = read-out: pEC50 mean±SEM (converted)
[10] = read-out: pEC50±SEM, NmU-25 alone (converted)

T6 sequence (Q9GZQ4 whole entry F305A): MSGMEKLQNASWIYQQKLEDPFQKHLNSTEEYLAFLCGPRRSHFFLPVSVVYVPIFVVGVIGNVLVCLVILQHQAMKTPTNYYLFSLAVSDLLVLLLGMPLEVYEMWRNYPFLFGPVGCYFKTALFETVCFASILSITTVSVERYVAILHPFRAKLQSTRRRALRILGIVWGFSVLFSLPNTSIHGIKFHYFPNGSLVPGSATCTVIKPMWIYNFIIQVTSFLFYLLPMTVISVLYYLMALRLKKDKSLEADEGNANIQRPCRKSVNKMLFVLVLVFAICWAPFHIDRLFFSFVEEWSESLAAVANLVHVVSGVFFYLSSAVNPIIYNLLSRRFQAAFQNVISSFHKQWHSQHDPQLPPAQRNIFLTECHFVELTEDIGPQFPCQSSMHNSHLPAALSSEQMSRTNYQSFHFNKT
T3 sequence (Q9GZQ4 whole entry E102A): as the sequence (Q9GZQ4 whole entry F305A) above, with E102A, A305F counted along it
T1 sequence (Q9GZQ4 1-355 limits assumed, change not shown): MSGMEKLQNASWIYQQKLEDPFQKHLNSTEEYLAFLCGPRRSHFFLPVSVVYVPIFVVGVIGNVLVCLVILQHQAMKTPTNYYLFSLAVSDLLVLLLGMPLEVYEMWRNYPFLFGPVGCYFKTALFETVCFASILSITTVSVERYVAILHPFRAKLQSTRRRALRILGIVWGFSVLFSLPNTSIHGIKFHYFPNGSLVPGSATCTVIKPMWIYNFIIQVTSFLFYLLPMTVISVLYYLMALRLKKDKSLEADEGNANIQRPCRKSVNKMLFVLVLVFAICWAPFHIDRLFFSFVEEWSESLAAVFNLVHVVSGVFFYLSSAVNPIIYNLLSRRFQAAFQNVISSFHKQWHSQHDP
T4 sequence (Q9GZQ4 whole entry E105A): as the sequence (Q9GZQ4 whole entry F305A) above, with E105A, A305F counted along it
T2 sequence (Q9GZQ4 whole entry H43E): as the sequence (Q9GZQ4 whole entry F305A) above, with H43E, A305F counted along it
T5 sequence (Q9GZQ4 whole entry N109A): as the sequence (Q9GZQ4 whole entry F305A) above, with N109A, A305F counted along it
T7 sequence (Q9GZQ4 whole entry): as the sequence (Q9GZQ4 whole entry F305A) above, with A305F counted along it

FRVDEEFQSPFASQSRGYFLFRPRN-NH2 [NmU-25]
G protein activation (TRUPATH), dose-response point ([1]; Log [agonist] M -5): 104.095 and 133.885 and 136.246
G protein activation (TRUPATH), dose-response point ([1]; Log [agonist] M -6): 76.3981 and 114.895 and 125.038
EC50 ratio EC50(mutant)/EC50(WT) [2]: 11
Span (window between Emax and minimal agonist response) [2]: 135±8 % of WT
G protein activation (TRUPATH), dose-response point ([2]; Log [agonist] M -4): 115.78 and 106.024 and 146.553 and 103.896
G protein activation (TRUPATH), dose-response point ([2]; Log [agonist] M -6): 81.3432 and 53.8154 and 89.1078 and 81.5652
ΔpEC50 (from WT) ([2]; individual experiments): -0.8963 and -0.6313 and -0.3476 and -0.5879
EC50 ([2]; read-out: EC50): 0.36 µM
EC50 [2, 9]: 0.363 µM
potency (in words) [3]: complete loss of potency
Span (window between Emax and minimal agonist response) ([4]; E105A): 65±13 % of WT
Emax ([4]; E105A vs WT, TRUPATH, read-out: decrease of Emax): 50%
G protein activation (TRUPATH), dose-response point ([4]; E105A, Log [agonist] M -5): 55.6494 and 84.0025 and 53.5618 and 51.5031
EC50 ([4]; E105A, earlier manuscript version quoted in peer review file, read-out: EC50): 1.85 µM
reduction of agonist potency ([4]; E105A, earlier manuscript version, peer review file): about 50 fold
ΔpEC50 (from WT) ([4]; E105A, individual experiments): -1.22 and -1.57 and -1.279 and -1.924
EC50 ([4]; E105A, read-out: EC50): 2.48 µM
EC50 ([4]; E105A, read-out: pEC50 mean±SEM (converted)): 2.51 µM
EC50 ratio EC50(mutant)/EC50(WT) [5]: 9
Span (window between Emax and minimal agonist response) [5]: 138±11 % of WT
G protein activation (TRUPATH), dose-response point ([5]; Log [agonist] M -4): 126.259
G protein activation (TRUPATH), dose-response point ([5]; Log [agonist] M -5): 106.487 and 123.773 and 113.723
G protein activation (TRUPATH), dose-response point ([5]; Log [agonist] M -6): 98.1363 and 71.1117 and 54.8765
ΔpEC50 (from WT) ([5]; individual experiments): -1.459 and -0.6318 and -0.9885
EC50 ([5]; read-out: EC50): 0.298 µM
EC50 [5, 9]: 0.295 µM
EC50 ratio EC50(mutant)/EC50(WT) [6]: 77
Span (window between Emax and minimal agonist response) [6]: 95±11 % of WT
G protein activation (TRUPATH), dose-response point ([6]; Log [agonist] M -4): 46.0579 and 58.1697 and 76.8594 and 61.8818
ΔpEC50 (from WT) ([6]; individual experiments): -2.165 and -2.457 and -1.8628 and -2.734
Emax ([6]; peer review file): 83%
potency reduction ([6]; peer review file): 33 fold
EC50 ([6]; read-out: EC50): 2.6 µM
EC50 [6, 9]: 2.63 µM
EC50 ([7]; read-out: EC50, NmU-25 alone): 0.017 µM
EC50 [7, 10]: 0.0166 µM
EC50 ([8]; read-out: EC50, NmU-25 alone): 1.7 µM
EC50 [8, 10]: 1.7 µM
